Results from patent US20080317857A1, “V-Atpase Inhibitors of Use in the Treatment of Septic Shock” (Brane Discovery S.r.l., priority 2005, published 2008).

What was measured:
[1] = test system: Lymphocytes; experiment: Chemotaxis assay, lymphocytes (transwell); type: cell-based; conditions: Homo sapiens, Lymphocyte
Protocol: (§1) PMNs and monocytes migration was assessed using 1 or 3-μm pore size transwells (Bio-Coat Becton-Dickinson), while lymphocytes by using 5-μm pore size transwells.
(§2) Cells were in RPMI1640, containing 10% heat-inactivated Fetal Calf Serum (FCS) and 20 mM HEPES, pH 7.3, at 2×10^6/ml. 100 μl of cell suspension were added to the top well, and 600 μl of medium, containing chemoaftractants and test compound, were added to the bottom well. Migration was evaluated after 2 h for PMNs and monocytes and after 4 h for lymphocytes. fMLP 10 nM (PMNs and monocytes) and MIP-3β 100 nM (lymphocytes) were utilized as chemoattractants. After fixation with 1.5% glutaraldehyde, migrated cells were counted by fluorescence-activated cell sorting using polystyrene beads (Polyscience) as an internal standard (Campbell J. J. et al. J. Cell. Biol. 134, 255-266, 1996; Laudanna C. et al. J. Biol. Chem. 273, 46, 30306-30315, 1998).
(§3) Results are expressed as percentage of inhibition over control (=100%), and are the mean of three experiments.

[2] = test system: PMNs; experiment: Chemotaxis assay, PMNs (transwell); type: cell-based; conditions: Homo sapiens
Protocol: as §1, §2, §3

[3] = test system: endotoxic shock induced by LPS in C57BI/6 male mice; experiment: Septic shock animal model (LPS-induced endotoxic shock), survival; type: in vivo
Excerpt: The model is represented by endotoxic shock, the most common type of septic shock in humans.
The septic shock has been induced in 8-10 week-old C57BI/6 male mice (Harlan-Nossan laboratories) by high concentrations of LPS (lipopolysaccharide), that is considered a reliable experimental model for human endotoxic shock (Garrido et al., Acta Chir. Bras., 19, 2004).
LPS from Escherichia coli 0127:B7 (Sigma) was solubilized in PBS containing 2% fetal calf serum (FCS) as a source of “LPS binding protein”, a molecule that increases the endotoxin action. Mice received 37.5 mg/kg LPS/endotoxin intraperitoneally (i.p.). Animals (ten/group) were monitored at least four times daily and survival of animals was determined in control and treated mice (Lowell C. A. et al., PNAS 95, 7580, 1998).
In the preventive study (FIG. 3), control mice received only vehicle, while treated mice received 70 mg/kg i.p. of Compound of Example 1 two hours before the administration of LPS.
In the therapeutic study (FIG. 4), control mice received only vehicle, while treated mice received both 70 mg/kg i.p. of Compound of Example 1 (3 hours after LPS administration) and 10 mg/kg i.v. (intravenously) (12 hours after LPS administration).

[4] = test system: Lymphocytes; experiment: Chemokine-induced rapid adhesion of lymphocytes to ICAM-1 (LFA-1 ligand); type: cell-based; conditions: Homo sapiens, Lymphocyte
Protocol: (§4) Adhesion was performed on purified integrin ligands and was evaluated as reported in Constantin G. et al., Immunity, 16, 759-769, 2000. Briefly, primary naïve lymphocytes, polymorphonuclear neutrophils (PMNs) or monocytes were isolated form healthy donors. In other experiments, murine autoreactive T cells were obtained from SJL mice immunized with PLP139-151 as described (Piccio L. et al., J. Immunol. 168, 1940-1949, 2002). Cells were resuspended at 4×10^6/ml in PBS, CaCl2, MgCl2 1 mM, 10% FCS, pH 7.2. Adhesion assays were performed on eighteen well glass slides coated overnight at 4° C. with ligands for CR3 (fibrinogen) or LFA-1 (ICAM-1). 20 μl of cell suspension were added to the wells and stimulated at 37° C. with 5 μl of agonists prior to washing, fixation and computer-assisted enumeration of bound cells.
(§5) Integrin activation was measured as induction of rapid adhesion triggered by the classical chemoattractant N-formyl-L-methionyl-L-leucyl-phenylalanine (fMLP) (100 nM) or by the CC chemokine MIP3β (CCL19, 1 μM). PMNs and monocytes were triggered to adhere to fibrinogen (CR3 ligand); naive human lymphocytes or murine encephalitogenic T cells were triggered to adhere to ICAM-1 (LFA-1 ligand). Triggered adhesion was evaluated after 2 min of stimulation under static conditions. The cells were pretreated at 37° C. for 30-60 min with the indicated concentrations of the test compound. Results are expressed as percentage of inhibition over control (=100%) and are the mean of three experiments in the case of human leukocytes. Results are expressed as mean counts and are the mean counts±S.D of three experiments and are the mean of three experiments in the case of murine encephalitogenic lymphocytes.
Integrin activation was measured as induction of rapid adhesion triggered by the “classical” chemoattractant fMLP (100 nM) or by the CC chemokine MIP3β(CCL19, 1 μM). PMNs were triggered to adhere to fibrinogen (CR3 ligand); lymphocytes were triggered to adhere to ICAM-1 (LFA-1 ligand).

[5] = test system: Monocytes; experiment: Chemoattractant-induced rapid adhesion of monocytes to fibrinogen; type: cell-based; conditions: Homo sapiens, Monocyte, read-out: Inhibition of Adhesion (%) Monocytes (fMLP)
Protocol: as §4, §5

COC(=O)c1[nH]c2cc(OC)c(OC)cc2c1-c1ccc(OC)cc1 [Example 1]
inhibition at 2.5 µM ([1]; [cpd] 2.5 μM, read-out: Inhibition of Chemotaxis (%) Lymphocytes (MIP3-β)): 11.6% | inhibition at 5 µM ([1]; [cpd] 5 μM, read-out: Inhibition of Chemotaxis (%) Lymphocytes (MIP3-β) (converted)): 27.2% | inhibition at 10 µM ([1]; [cpd] 10 μM, read-out: Inhibition of Chemotaxis (%) Lymphocytes (MIP3-β) (converted)): 43.2% | inhibition at 25 µM ([1]; [cpd] 25 μM, read-out: Inhibition of Chemotaxis (%) Lymphocytes (MIP3-β) (converted)): 53.3% | inhibition at 50 µM ([1]; [cpd] 50 μM, read-out: Inhibition of Chemotaxis (%) Lymphocytes (MIP3-β) (converted)): 63.5% | inhibition at 100 µM ([1]; [cpd] 100 μM, read-out: Inhibition of Chemotaxis (%) Lymphocytes (MIP3-β) (converted)): 86.9% | inhibition at 2.5 µM ([2]; [cpd] 2.5 μM, read-out: Inhibition of Chemotaxis (%) PMNs (fMLP)): 14.6% | inhibition at 5 µM ([2]; [cpd] 5 μM, read-out: Inhibition of Chemotaxis (%) PMNs (fMLP) (converted)): 28.2% | inhibition at 10 µM ([2]; [cpd] 10 μM, read-out: Inhibition of Chemotaxis (%) PMNs (fMLP) (converted)): 34% | inhibition at 25 µM ([2]; [cpd] 25 μM, read-out: Inhibition of Chemotaxis (%) PMNs (fMLP) (converted)): 40.6% | inhibition at 50 µM ([2]; [cpd] 50 μM, read-out: Inhibition of Chemotaxis (%) PMNs (fMLP)): 46.4% | inhibition at 100 µM ([2]; [cpd] 100 μM, read-out: Inhibition of Chemotaxis (%) PMNs (fMLP) (converted)): 62.6% | survival, therapeutic study ([3]; 70 mg/kg i.p. 3 hours and 10 mg/kg i.v. 12 hours after LPS, at 52 hours, control survival 0%): 40% | mortality, preventive study ([3]; 70 mg/kg i.p. two hours before LPS, at 90 hours, control mortality 100%): 20% | survival, preventive study ([3]; 70 mg/kg i.p. two hours before LPS, at 90 hours, control survival 0%): 80% | inhibition at 2.5 µM ([4]; [cpd] 2.5 μM, read-out: Inhibition of Adhesion (%) Lymphocytes (MIP3-β)): 32.4% | inhibition at 5 µM ([4]; [cpd] 5 μM, read-out: Inhibition of Adhesion (%) Lymphocytes (MIP3-β) (converted)): 41.2% | inhibition at 10 µM ([4]; [cpd] 10 μM, read-out: Inhibition of Adhesion (%) Lymphocytes (MIP3-β) (converted)): 42.6% | inhibition at 25 µM ([4]; [cpd] 25 μM, read-out: Inhibition of Adhesion (%) Lymphocytes (MIP3-β) (converted)): 60.8% | inhibition at 50 µM ([4]; [cpd] 50 μM, read-out: Inhibition of Adhesion (%) Lymphocytes (MIP3-β) (converted)): 61.8% | inhibition at 100 µM ([4]; [cpd] 100 μM, read-out: Inhibition of Adhesion (%) Lymphocytes (MIP3-β) (converted)): 98.6% | inhibition at 2.5 µM ([5]; [cpd] 2.5 μM): < 5% | inhibition at 5 µM ([5]; [cpd] 5 μM): < 5% | inhibition at 10 µM ([5]; [cpd] 10 μM): < 5% | inhibition at 25 µM ([5]; [cpd] 25 μM): < 5% | inhibition at 50 µM ([5]; [cpd] 50 μM): < 5% | inhibition at 100 µM ([5]; [cpd] 100 μM): < 5%
